Measurements taken from US10716869B2, “Radiolabeled macrocyclic EGFR inhibitor” (Oncodesign SA, priority 2016, dated 2020).
Values after ≈ are worked out from the molar mass of the structure shown. Values joined by “and” are separate entries in the source; they are usually repeats but may differ in a detail not shown here. Equal values may be shown once. Read-outs that look alike come from different tables or passages of the source.

Assays:
[1] = biological target: T790M (EGFR mutant) (Homo sapiens, UniProt P00533, L858R/T790M); assay: radiometric protein kinase assay (33PanQinase Activity Assay); conditions: Test 1; read-out: Biochemical IC50 T790M
Sequence of T790M (EGFR mutant) (P00533 672-1210 T790M/L858R): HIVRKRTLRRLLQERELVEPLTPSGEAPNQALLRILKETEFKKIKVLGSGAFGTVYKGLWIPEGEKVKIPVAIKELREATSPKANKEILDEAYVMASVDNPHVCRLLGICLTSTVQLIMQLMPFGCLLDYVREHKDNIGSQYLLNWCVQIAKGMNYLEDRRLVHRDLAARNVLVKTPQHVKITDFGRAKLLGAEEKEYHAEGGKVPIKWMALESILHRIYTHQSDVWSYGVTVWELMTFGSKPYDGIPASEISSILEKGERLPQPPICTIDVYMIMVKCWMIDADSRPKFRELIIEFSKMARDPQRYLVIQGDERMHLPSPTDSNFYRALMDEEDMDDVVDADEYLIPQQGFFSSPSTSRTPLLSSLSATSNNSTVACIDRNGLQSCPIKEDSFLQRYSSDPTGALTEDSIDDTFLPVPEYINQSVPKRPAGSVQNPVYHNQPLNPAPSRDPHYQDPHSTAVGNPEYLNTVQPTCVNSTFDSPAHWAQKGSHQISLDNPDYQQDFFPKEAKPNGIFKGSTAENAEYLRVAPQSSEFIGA
Experimental: A radiometric protein kinase assay (^33PanQinase® Activity Assay) was used for measuring the biochemical kinase activity of 3 protein kinases, EGFR wild-type and 2 EGFR mutants (L858R, L858R/T790M). The compounds were tested in 100% DMSO, all recombinant protein kinases and substrates with respective concentration are described in table 1.

[2] = tested on: panel of 92 wild-type kinases; assay: kinase selectivity, residual activity at 100 nM and 1 μM; conditions: for selectivity score S(50): 92 wild-type kinases
Source text: Corresponding kinases and substrates were always tested at the ATP Km concentration.

[3] = tested on: NCI-H3255 (EGFR_L858R); assay: MTS cell viability assay, 72 hours; type: cell-based, Human
Experimental: (§1) The cell lines that were used to assay the cellular activity of the compounds are detailed in table 3 hereafter:
(§2) Tumor cells grew as monolayer at 37° C. in a humidified atmosphere (5% CO2) in complete culture medium adapted to each cell line. The cellular activity of the compounds was assessed by measuring the viability of cancer cell in MTS assay using a tetrazolium compound (MTS, 3-(4,5-dimethylthiazol-2-yl)-5-(3-carboxymethoxy phenyl)-2-(4-sulfophenyl)-2H-tetrazolium) and an electron coupling reagent named PMS (phenazine methosulfate). MTS is bioreduced by cells into a formazan product that is directly soluble in culture medium without processing. The cells were seeded 24 hours before treatment at the appropriate density in their culture medium to be near 90% of confluence at the end of experiment in vehicle treated conditions. After addition of compounds, the cells were incubated for 72 hours.

[4] = tested on: NCI-H441 (EGFR WT); assay: MTS cell viability assay, 72 hours; type: cell-based, Human; conditions: read-out: Cellular IC50 NCI-H441 (EGFR WT)
Experimental: as §1, §2

[5] = biological target: T1, EGFR wt (human, 672-1210) (Homo sapiens, UniProt P00533); assay: radiometric protein kinase assay (33PanQinase Activity Assay); conditions: Tests 1-3 are repeat determinations; read-out: Biochemical IC50 EGFR WT (activated)
T1 construct: (human, 672-1210)
T1 sequence (P00533 672-1210): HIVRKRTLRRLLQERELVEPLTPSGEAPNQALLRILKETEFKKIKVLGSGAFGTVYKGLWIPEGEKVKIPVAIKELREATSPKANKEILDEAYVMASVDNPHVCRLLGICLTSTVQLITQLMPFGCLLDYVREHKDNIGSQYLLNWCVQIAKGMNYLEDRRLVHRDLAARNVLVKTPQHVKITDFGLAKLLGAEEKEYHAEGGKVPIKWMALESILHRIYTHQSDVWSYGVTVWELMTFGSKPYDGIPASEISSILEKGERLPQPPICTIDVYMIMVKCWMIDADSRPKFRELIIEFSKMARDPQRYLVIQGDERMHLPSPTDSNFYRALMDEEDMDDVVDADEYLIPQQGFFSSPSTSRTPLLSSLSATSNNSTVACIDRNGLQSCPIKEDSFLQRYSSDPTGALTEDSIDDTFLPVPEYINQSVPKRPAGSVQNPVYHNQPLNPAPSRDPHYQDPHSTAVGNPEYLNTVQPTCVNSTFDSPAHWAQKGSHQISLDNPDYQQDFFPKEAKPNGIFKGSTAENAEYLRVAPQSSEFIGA
Experimental: (§3) The compounds were tested in 100% DMSO, all recombinant protein kinases and substrates with respective concentration are described in table 1.

[6] = biological target: T2, EGFR L858R (human, 672-1210) (Homo sapiens, UniProt P00533, L858R); assay: as above; conditions: Tests 1-3 are repeat determinations; read-out: Biochemical IC50 EGFR L858R
T2 construct: (human, 672-1210)
T2 sequence (P00533 672-1210 L858R): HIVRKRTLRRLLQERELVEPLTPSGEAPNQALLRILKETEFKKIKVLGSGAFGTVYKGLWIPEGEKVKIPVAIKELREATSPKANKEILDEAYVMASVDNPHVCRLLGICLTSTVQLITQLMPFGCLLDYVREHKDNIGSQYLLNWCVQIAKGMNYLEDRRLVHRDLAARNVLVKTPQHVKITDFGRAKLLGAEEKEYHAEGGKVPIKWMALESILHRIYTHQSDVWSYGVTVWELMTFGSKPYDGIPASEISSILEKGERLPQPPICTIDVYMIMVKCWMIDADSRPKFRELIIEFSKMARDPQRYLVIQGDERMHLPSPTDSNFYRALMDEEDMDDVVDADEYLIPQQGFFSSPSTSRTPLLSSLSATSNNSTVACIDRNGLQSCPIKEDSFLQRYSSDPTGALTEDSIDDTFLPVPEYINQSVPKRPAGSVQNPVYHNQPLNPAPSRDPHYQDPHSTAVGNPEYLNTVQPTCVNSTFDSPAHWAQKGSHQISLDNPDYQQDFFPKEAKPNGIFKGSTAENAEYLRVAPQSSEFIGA
Experimental: as §3

[7] = biological target: T3, EGFR T790M/L858R (human, 672-1210) (Homo sapiens, UniProt P00533, L858R/T790M); assay: as above; conditions: Tests 1-3 are repeat determinations; read-out: Biochemical IC50 EGFR L858R/T790M
T3 construct: (human, 672-1210)
T3 sequence (P00533 672-1210 T790M/L858R): as the sequence (P00533 672-1210 T790M/L858R) above
Experimental: as §3

[8] = biodistribution by ex vivo γ-counting in Sprague Dawley rats
Experimental: To evaluate the biodistribution of the pure S (II) and R (III) enantiomers compared to compound (I), dynamic PET scan imaging and ex vivo gamma counting were performed on Sprague Dawley rats. Animals were injected with the radiotracer solution diluted in NaCl 0.9% to prepare a solution of activity 4-6 MBq (gamma-counting experiments) or 11-13 MBq (PET imaging experiments) in a volume of 300-400 or 600-800 μL, respectively. Radioactivity content in all biological samples was determined with scintillation γ-counter (Cobra 4180, Perkin-Elmer Inc.).
At the light of the biodistribution data of compound (I), the biodistribution of the R (III)- and S (II)-enantiomers was assessed by γ-counting in the organs in which the accumulation of compound (I) was prominent (that is: blood, heart, kidneys, liver, stomach, small intestine and colon). Two timepoints were selected: 5 and 30 minutes post-injection. […] The higher uptakes of R enantiomer (III) and S enantiomer (II) in these organs were expected to be observed at early timepoints after injection, giving the highest signals in the γ-counter and therefore making the comparison of biodistribution data more relevant. Besides, as PET images were acquired with compound (I), PET imaging was included in the evaluation of the biodistribution of R enantiomer and S enantiomer. This gave the opportunity to had one additional timepoint at 4 hours post-injection for collection of major organs and determination of radioactivity content by ex vivo γ-counting.

[9] = plasma stability by HPLC; type: in vitro ADME, rat; conditions: checked up to 4 h
Experimental: (§4) After radiosynthesis, the stability of the radiotracer was evaluated by HPLC both in its vehicle and in rat plasma. Compound (I) was formulated in physiologic serum/ethanol with the respective proportion 87.5/12.5 (v/v). A mixture of compounds (I) (i.e. radiolabelled) and (Ia) (i.e. cold analogue) was stable for up to 20 hours at room temperature in its vehicle, only one peak being detected at the expected retention time. In rat plasma two peaks were detected: one at 3.15 minutes and one at 8.02 minutes (corresponding to a mixture of compounds (I) and (Ia)) after an incubation at +37° C. for 4 hours.

[10] = radiochemical stability in vehicle by HPLC; type: physicochemical; conditions: conditions of formulation, storage at room temperature
Experimental: By this method, the final radiolabeled compound can be obtained with a radiochemical purity greater than 98% in 100-110 min with a yield that can reach 25% (decay corrected). It has been noticed that an uncompleted evaporation of the solvents used for the purification of [^18F]Fluoroethyltosylate hampers the second step and conducts to lower yields. Specific activity of productions was in the range of […]. The radiolabeled compound is stable in the conditions of formulation as radiochemical purity still greater than 95% 20 h after production with a storage at room temperature.
as §4

[11] = biological target: constitutively active EGFR in NCI-H3255 (Homo sapiens, UniProt P00533, L858R); assay: EGFR Y1068 phosphorylation, Western blot
Sequence of constitutively active EGFR in NCI-H3255 (P00533 25-1210 L858R): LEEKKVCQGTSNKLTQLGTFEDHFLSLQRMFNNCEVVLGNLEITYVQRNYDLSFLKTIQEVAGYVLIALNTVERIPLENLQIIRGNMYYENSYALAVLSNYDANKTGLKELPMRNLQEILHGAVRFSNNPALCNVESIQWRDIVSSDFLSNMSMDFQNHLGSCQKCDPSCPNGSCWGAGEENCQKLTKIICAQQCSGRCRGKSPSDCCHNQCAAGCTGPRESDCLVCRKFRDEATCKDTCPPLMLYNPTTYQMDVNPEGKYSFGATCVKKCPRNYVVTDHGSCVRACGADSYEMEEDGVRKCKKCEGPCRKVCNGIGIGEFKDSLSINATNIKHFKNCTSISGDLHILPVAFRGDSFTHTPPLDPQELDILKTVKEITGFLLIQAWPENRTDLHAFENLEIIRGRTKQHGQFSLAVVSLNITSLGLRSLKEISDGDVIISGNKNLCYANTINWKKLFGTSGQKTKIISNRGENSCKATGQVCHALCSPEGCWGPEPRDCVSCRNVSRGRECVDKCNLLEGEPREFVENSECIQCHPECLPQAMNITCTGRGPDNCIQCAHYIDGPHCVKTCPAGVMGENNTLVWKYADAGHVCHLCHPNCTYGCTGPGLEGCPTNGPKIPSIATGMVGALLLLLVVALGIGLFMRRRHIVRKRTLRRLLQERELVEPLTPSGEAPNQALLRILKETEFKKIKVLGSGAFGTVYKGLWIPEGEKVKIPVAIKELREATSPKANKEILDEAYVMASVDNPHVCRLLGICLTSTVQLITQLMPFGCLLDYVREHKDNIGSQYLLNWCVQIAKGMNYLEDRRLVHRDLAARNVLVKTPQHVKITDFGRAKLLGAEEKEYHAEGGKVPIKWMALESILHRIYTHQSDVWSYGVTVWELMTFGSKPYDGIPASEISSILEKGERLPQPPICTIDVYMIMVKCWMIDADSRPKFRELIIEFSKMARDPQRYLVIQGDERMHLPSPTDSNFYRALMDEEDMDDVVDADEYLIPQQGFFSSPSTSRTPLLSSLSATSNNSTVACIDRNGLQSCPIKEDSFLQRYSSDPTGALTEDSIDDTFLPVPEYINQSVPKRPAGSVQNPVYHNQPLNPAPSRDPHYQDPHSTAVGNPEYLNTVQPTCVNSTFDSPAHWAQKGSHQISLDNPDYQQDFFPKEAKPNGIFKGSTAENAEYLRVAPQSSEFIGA

[12] = tested on: NCI-H1975 tumors (double mutation); assay: in vivo specificity: competition for uptake of Compound (I); set-up: species or system rats; conditions: gefitinib 2 mg/rat or Compound (Ia) 1 mg/rat
[13] = metabolic microsomal stability, rat liver microsomes; type: in vitro ADME; conditions: pH 7.4, 0.5 mg/mL protein
Experimental: (§5) Metabolic microsomal stability was performed on human and rat liver microsomes. Microsomes (final protein concentration 0.5 mg/mL), 0.1 M phosphate buffer pH 7.4 and test compound (final substrate concentration=3 μM; final DMSO concentration=0.25%) are pre-incubated at 37° C. prior to the addition of NADPH (final concentration=1 mM) to initiate the reaction. Analysis is done with generic LC-MS/MS conditions to determine half-life and intrinsic clearance using standard equations. […] In human, Compound (Ia) metabolic stability was better than in rat and favorable for clinical studies.

[14] = tested on: WT NCI-H441 tumors; assay: in vivo specificity: competition for uptake of Compound (I); set-up: species or system rats; conditions: gefitinib 2 mg/rat or Compound (Ia) 1 mg/rat
[15] = tested on: NCI-H3255 tumors (simple mutation); assay: as above; set-up: species or system rats; conditions: gefitinib 2 mg/rat or Compound (Ia) 1 mg/rat
[16] = biological target: double mutant EGFR expressed by NCI-H1975 (Homo sapiens, UniProt P00533, L858R/T790M); assay: EGFR Y1068 phosphorylation, Western blot
[17] = tested on: MCF-7; assay: MTS cell viability assay, 72 hours; type: cell-based; conditions: Homo sapiens, MCF7, 72 h, negative control, does not express EGFR, read-out: Cellular IC50 MCF-7
Experimental: as §1, §2

[18] = tested on: NCI-H1975 (EGFR L858R/T790M); assay: MTS cell viability assay, 72 hours; type: cell-based; conditions: Homo sapiens, NCI-H1975, 72 h, read-out: Cellular IC50 NCI-H1975 (EGFR L858R/T790M)
Experimental: as §1, §2

[19] = metabolic microsomal stability, human liver microsomes; type: in vitro ADME; conditions: pH 7.4, 0.5 mg/mL protein
Experimental: as §5

[20] = biological target: EGFR phosphorylation in NCI-H441 (Homo sapiens, UniProt P00533); assay: EGFR Y1068 phosphorylation, Western blot; conditions: NCI-H441, 10 ng/ml EGF
Sequence of EGFR phosphorylation in NCI-H441 (P00533 25-1210): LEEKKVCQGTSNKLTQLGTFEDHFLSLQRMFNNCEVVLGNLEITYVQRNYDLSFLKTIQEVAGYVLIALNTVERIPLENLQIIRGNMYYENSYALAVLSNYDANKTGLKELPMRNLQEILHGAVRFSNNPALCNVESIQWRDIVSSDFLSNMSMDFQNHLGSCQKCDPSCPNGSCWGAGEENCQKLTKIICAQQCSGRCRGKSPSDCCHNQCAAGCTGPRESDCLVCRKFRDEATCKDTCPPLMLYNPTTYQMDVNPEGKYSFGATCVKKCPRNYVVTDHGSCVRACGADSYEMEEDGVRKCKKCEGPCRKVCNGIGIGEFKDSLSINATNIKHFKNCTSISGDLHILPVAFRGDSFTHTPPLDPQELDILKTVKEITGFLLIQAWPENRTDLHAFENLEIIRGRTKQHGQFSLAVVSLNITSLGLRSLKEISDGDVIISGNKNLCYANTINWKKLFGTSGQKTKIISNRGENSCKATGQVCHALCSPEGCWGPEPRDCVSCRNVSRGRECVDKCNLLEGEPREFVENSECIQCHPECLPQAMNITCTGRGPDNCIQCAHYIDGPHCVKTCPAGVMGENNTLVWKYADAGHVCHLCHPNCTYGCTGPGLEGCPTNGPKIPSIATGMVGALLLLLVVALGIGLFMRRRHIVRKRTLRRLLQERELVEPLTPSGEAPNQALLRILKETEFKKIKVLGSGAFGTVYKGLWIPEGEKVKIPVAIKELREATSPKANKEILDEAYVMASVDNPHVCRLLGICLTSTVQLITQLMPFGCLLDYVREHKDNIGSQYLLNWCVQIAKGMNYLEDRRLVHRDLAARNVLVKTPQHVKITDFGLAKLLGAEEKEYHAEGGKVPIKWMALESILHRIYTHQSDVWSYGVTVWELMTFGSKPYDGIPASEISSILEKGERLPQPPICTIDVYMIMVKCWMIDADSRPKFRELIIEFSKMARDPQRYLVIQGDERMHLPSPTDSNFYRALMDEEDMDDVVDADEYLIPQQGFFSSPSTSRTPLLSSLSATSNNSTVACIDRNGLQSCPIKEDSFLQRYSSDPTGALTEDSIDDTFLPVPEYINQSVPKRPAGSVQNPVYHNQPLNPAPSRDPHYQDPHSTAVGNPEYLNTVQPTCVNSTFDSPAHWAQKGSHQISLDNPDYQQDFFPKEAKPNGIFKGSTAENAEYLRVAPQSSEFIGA

[21] = kinetic solubility in PBS at pH 7.4; type: physicochemical; conditions: pH 7.4, aqueous buffer, kinetic from dmso stock
Experimental: The kinetic solubility of the compounds was assessed in PBS at pH 7.4.

[22] = tested on: human lung tumors (wild type EGFR, L858R mutated or exon 19 deleted EGFR); assay: autoradiography on human frozen tumor sections; conditions: ATP at 10 mM
Source text: Three types of human lung tumors were included: tumors harboring wild type EGFR and tumors carrying L858R mutated or exon 19 deleted EGFR genes.

[23] = Homo sapiens, NCI-H3255, 72 h, read-out: Cellular IC50 NCI-H3255 (EGFR_L858R)

CC(C)[C@@H]1NC(=O)Cc2ccc(Cl)cc2Nc2ncnc3cc(OCCF)c(cc23)OCCCNC1=O [Compound (IIa)]
IC50 [1]: 1010 nM | wild-type kinases inhibited for more than 50% ([2]; at 100 nM): EGFR and RIPK2 were the only wild-type kinases inhibited for more than 50% | selectivity score S(50) ([2]; at 100 nM): 2.2% and 2.5% | number of other kinases with inhibition of >50% ([2]; at 1 μM): 9 | selectivity score S(50) ([2]; at 1 μM): 11.9% and 13% | IC50 [3, 23]: 30 nM | IC50 ([3]; read-out: Cellular IC50 NCI-H3255 (EGFR_L858R)): 49 nM | IC50 ([4]; Homo sapiens, NCI-H441, 72 h): > 25000 nM | IC50 [5]: < 10 nM and 5.9 nM | IC50 [6]: < 10 nM and 6.3 nM | IC50 [7]: 924 nM

CC(C)[C@H]1NC(=O)Cc2ccc(Cl)cc2Nc2ncnc3cc(OCC[18F])c(cc23)OCCCNC1=O [(III)]
uptake in liver ([8]; 5 minutes post injection): 0.02±0.09 % ID/g | uptake in small intestine ([8]; 5 minutes post injection): 0.35±0.19 % ID/g | uptake in blood ([8]; 5 minutes post-injection): 0.20±0.002 % ID/g | uptake in heart ([8]; 5 minutes post-injection): 0.99±0.02 % ID/g | uptake in kidneys ([8]; 5 minutes post-injection): 4.15±0.79 % ID/g | uptake in stomach ([8]; 5 minutes post-injection): 1.86±0.73 % ID/g | uptake in liver ([8]; 30 minutes post injection): 0.71±0.07 % ID/g | uptake in heart ([8]; 30 minutes post-injection): 0.10±0.02 % ID/g | uptake in kidneys ([8]; 30 minutes timepoint): 0.25±0.08 % ID/g | uptake in stomach ([8]; 30 minutes timepoint): 0.26±0.07 % ID/g | uptake in stomach ([8]; four hours post-injection): 2.58±2.52 % ID/g | uptake in small intestine ([8]; thirty minutes post-injection): 0.02±0.004 % ID/g

CC(C)[C@@H]1NC(=O)Cc2ccc(Cl)cc2Nc2ncnc3cc(OCC[18F])c(cc23)OCCCNC1=O [Compound (II)]
Plasmatic stability [9]: without significant degradation | uptake in liver ([8]; 5 minutes post injection): 0.97±0.92 % ID/g | uptake in small intestine ([8]; 5 minutes post injection): 0.08±0.09 % ID/g | uptake in blood ([8]; 5 minutes post-injection): 0.11±0.01 % ID/g | uptake in heart ([8]; 5 minutes post-injection): 1.35±0.35 % ID/g | uptake in kidneys ([8]; 5 minutes post-injection): 6.89±0.52 % ID/g | uptake in stomach ([8]; 5 minutes post-injection): 0.72±0.38 % ID/g | uptake in liver ([8]; 30 minutes post injection): 0.15±0.03 % ID/g | uptake in heart ([8]; 30 minutes post-injection): 0.19±0.08 % ID/g | uptake in kidneys ([8]; 30 minutes timepoint): 1.04±0.17 % ID/g | uptake in stomach ([8]; 30 minutes timepoint): 0.20±0.05 % ID/g | uptake in stomach ([8]; four hours post-injection): 2.39±2.31 % ID/g | uptake in small intestine ([8]; thirty minutes post-injection): 0.08±0.07 % ID/g | radiochemical purity 20 h after production [10]: greater than 95%

CC(C)C1NC(=O)Cc2ccc(Cl)cc2Nc2ncnc3cc(OCCF)c(cc23)OCCCNC1=O (stereo not drawn) [Compound (Ia)]
concentration at which full inhibition of constitutively active EGFR was observed [11]: ~100 nM | IC50 [3, 23]: 6 ± 2 nM | IC50 ([4]; Homo sapiens, NCI-H441, 72 h): 34700 ± 24000 nM | change of T/M ratios of Compound (I) after competition [12]: −55% | microsomal CLint at 3 μM [13]: 37.9 ± 1.89 µL/min/mg | half-life at 3 μM ([13]; read-out: rat microsomal stability t1/2): 0.608 h | change of uptake of Compound (I) after competition [14]: 5% | decrease of T/M ratios of Compound (I) by competition [15]: 52% | inhibition of constitutively active double mutant EGFR [16]: partially inhibit EGFR activity at 10 μM | IC50 [17]: 62100 nM | IC50 [18]: 5000 ± 1400 nM | microsomal CLint at 3 μM [19]: 7.76 ± 2.53 µL/min/mg | half-life at 3 μM ([19]; read-out: human microsomal stability t1/2): 2.98 h | IC50 [5]: 3.2 nM and 5 nM and 5.7 nM | IC50 [6]: 3 nM and 8 nM and 4.1 nM | IC50 [7]: 372 nM and 990 nM and 246 nM | inhibition of EGF-induced EGFR Y1068 phosphorylation [20]: almost full inhibition observed at 1 μM | solubility kinetic [21]: 88 µM (≈ 46.6 µg/mL)

COc1cc2ncnc(Nc3ccc(F)c(Cl)c3)c2cc1OCCCN1CCOCC1 [Gefitinib, gefitinib, reference compound]
change of uptake of Compound (I) after competition [14]: +16%

CC(C)[C@H]1NC(=O)Cc2ccc(Cl)cc2Nc2ncnc3cc(OCCF)c(cc23)OCCCNC1=O [Compound (IIIa)]
IC50 [1]: 54.7 nM | selectivity score S(50) ([2]; at 100 nM): 0.6% | selectivity score S(50) ([2]; at 1 μM): 2.8% | IC50 ([3]; Homo sapiens, NCI-H3255, 72 h, read-out: mean IC50 on NCI-H3255): 6.1 nM | IC50 ([4]; Homo sapiens, NCI-H441, 72 h): 34700 nM | IC50 [4]: > 25000 nM | IC50 [5]: 3.1 nM | IC50 [6]: 2.7 nM | IC50 [7]: 77.7 nM

Nc1ncnc2c1ncn2[C@@H]1O[C@H](COP(=O)(O)OP(=O)(O)OP(=O)(O)O)[C@@H](O)[C@H]1O [ATP, reference compound]
competition with the binding of Compound (I) on frozen tumor sections [22]: totally abolished the binding of Compound (I)
